From ChEMBL document CHEMBL2073887, “Hepatobiliary transport kinetics of HSR-903, a new quinolone antibacterial agent” (Drug Metab Dispos, 1998)

Experiments:
[1] = biological target: T1, ATP-binding cassette sub-family C member 2 (Rattus norvegicus, UniProt Q63120); test: TP_TRANSPORTER: biliary excretion in EHBR rat; assay type: functional, organism-based, Bile; details: in vivo
[2] = biological target: T1, ATP-binding cassette sub-family C member 2; test: TP_TRANSPORTER: biliary excretion in SD rat; assay type: functional, organism-based, Sprague-Dawley, Bile; details: in vivo

T1 sequence (Q63120 whole entry): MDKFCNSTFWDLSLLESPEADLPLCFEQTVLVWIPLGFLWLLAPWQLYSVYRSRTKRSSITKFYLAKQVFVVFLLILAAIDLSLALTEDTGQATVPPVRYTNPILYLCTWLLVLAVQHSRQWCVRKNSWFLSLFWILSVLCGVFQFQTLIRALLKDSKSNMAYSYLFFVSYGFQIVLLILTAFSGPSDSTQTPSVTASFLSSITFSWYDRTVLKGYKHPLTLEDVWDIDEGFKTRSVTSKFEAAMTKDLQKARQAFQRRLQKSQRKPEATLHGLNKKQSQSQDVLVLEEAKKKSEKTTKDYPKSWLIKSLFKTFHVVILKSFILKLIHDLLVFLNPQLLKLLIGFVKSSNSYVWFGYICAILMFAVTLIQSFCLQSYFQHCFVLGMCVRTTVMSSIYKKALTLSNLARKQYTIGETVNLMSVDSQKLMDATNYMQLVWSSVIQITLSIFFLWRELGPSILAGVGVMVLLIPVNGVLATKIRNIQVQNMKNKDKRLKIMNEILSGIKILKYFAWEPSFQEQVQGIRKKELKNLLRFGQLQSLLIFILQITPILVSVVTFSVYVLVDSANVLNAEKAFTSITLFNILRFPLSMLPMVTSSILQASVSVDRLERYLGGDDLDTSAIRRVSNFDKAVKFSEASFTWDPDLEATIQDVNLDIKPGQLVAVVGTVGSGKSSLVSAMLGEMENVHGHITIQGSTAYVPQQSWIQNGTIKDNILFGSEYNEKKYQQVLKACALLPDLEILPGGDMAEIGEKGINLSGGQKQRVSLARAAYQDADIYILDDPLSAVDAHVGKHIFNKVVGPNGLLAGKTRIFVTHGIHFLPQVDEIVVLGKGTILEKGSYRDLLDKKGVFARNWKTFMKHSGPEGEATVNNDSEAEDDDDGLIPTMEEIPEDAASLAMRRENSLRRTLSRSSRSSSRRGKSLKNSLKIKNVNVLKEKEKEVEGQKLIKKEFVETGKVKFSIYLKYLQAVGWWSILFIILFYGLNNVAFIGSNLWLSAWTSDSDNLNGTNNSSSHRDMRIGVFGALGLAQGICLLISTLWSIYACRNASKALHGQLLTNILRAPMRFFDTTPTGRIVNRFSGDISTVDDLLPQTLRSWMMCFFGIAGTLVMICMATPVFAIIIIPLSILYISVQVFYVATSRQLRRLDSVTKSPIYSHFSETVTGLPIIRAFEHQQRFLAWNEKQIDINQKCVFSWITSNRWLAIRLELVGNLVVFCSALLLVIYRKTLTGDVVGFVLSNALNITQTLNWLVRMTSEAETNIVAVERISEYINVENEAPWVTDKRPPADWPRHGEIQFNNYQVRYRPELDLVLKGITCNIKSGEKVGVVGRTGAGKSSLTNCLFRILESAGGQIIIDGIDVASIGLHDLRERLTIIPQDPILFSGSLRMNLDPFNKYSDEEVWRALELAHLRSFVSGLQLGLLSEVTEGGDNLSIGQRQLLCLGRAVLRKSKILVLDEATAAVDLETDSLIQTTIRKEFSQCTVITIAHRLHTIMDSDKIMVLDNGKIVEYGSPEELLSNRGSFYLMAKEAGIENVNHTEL

Activity [1]: substrate [+]
Activity [2]: substrate [+]
SMILES: CS(=O)(=O)O.Cc1c(N2C[C@@H](N)C3(CC3)C2)c(F)c(N)c2c(=O)c(C(=O)O)cn(C3CC3)c12
